According to patent publication US11147219B2, “Methods and systems for growing plants using silicate-based substrates, cultivation of enhanced photosynthetic productivity and photosafening by utilization of exogenous glycopyranosides for endogenous glycopyranosyl-protein derivatives, and formulations, process and systems for the same” (Innovation Hammer, LLC, priority 2011, dated 2021):
Entries after “also recorded” stand apart in the source; their conditions may differ.

Experiments:
plants = test: Relative potency of glycosides on plants (stated, no method); conditions: in vivo
Crocus = test: Rooted Crocus cultivated in 700 μm silicate microbeads, treated with formulation; assay type: in vivo; conditions: 0.3 mM APM with 3 ppm Mn, 6 ppm Ca; Crocus in 700 μm microbeads
Method: Individual plants were started from seeds, bulbs, or vegetative clones, inserted into containers of pre-moistened microbeads. Seedlings included ryegrass and corn; bulbs were of Crocus and paperwhite narcissus; and vegetative cuttings were from Coleus. Seeds generally germinated and were selected according to day of emergence of first roots as control and treatment sets. Roots were treated thereafter.
Plants were cultivated under controlled environmental conditions as follow: GE Ecolux® plant and aquarium F40T12 fluorescent illumination, photosynthetically active radiation (PAR) of 100 μEin·m^−2·s^−1, diel cycle of 16:8 h light:dark, 28:26° C., 10% to 20% relative humidity. Indoxyl glycopyranoside (IG) was formulated in water and applied and controls were given equal volumes of water without IG. […] Clear plastic 500 cc containers, perforated for drainage, were filled to a depth of 10 cm with up to 900 grams of microbeads each. Initially, basal plates of bulbs were immersed 1 cm into moistened 700 μm nmd silicate beads to initiate rooting. […] Controls were treated with addition of 0.1 ml water to their media. After 8 h uptake of the treatments, fertigation resumed in a manner consistent with pH-control. […]
For all experiments, at 7 d to 14 d after treatment, microbeads were saturated with water. […] For paperwhites, volumes of entire roots were measured by displacement of water in glass beakers.

Radish seedlings = test: Radish seedling assay, immersion in nutrient solution with α-mannosides; assay type: in vivo; conditions: for growth response compared to Nutrient Control (visual): 1 mM TAM, 100 μM MP, 25 μM to 500 μM MeM, 10 μM APM
Method: Plants were cultured in research facilities and consistency of response to treatments was achieved by supplementation with chelated calcium and manganese. All plants were regularly given modified Hoagland water-culture nutrients. […] Controls were placed in the same location and all plants were given the same irrigation, fertilizers, and handling, but without the experimental compounds. Plants were matched to controls and treated within a week of emergence of cotyledon and true leaves. The performance of compounds was evaluated by comparing means of individual dry weights of shoots and roots. Statistics applied two-tailed Student's t-test with p-values significant within 95% confidence intervals. Counts of populations are “n” values and standard error is denoted “±SE.” Specialty chemicals included the following: tetramethyl-β-D-glucoside (TMG); tetraacetyl-D-glucopyranose (TAG); pentaacetyl-α-D-mannopyranose (MP); p-amino-phenyl-α-D-mannoside (APM); methyl-α-D-mannoside (MeM) and methylglucoside (MeG). MPG was synthesized. 2,3,4,6-tetra-O-acetyl-D-mannopyranose (αβ) was utilized. As required, MP and APM were dissolved in a lower aliphatic alcohol prior to dilution in aqueous media.
Assay—Radish seedlings were treated with α-mannosides after emergence of radicles. Seedlings were matched and transferred to Nutrient Control or treatment solutions. Assays were maintained under environmental conditions as follow: Photosynthetically active radiation 100 μEin·m^−2·sec^−1, diel cycle of 16:8 h light:dark, 26:26° C.

radish = test: Foliar application to radish grown hydroponically in 700 μm microbeads; assay type: in vivo; conditions: with 3 ppm Mn, 6 ppm Ca
Method: Approximately 200 grams of beads/cell filled individual 100 cc cells of plastic flats. Roots of radish are cultivated hydroponically by immersion of roots in 700 μm nmd shot, pre-moistened with buffered nutrient solution that included soluble Mn and Ca, and plants were allowed to grow for 72 h prior to treatment with aminophenyl-α-D-mannopyranoside.
4-aminophenyl-α-D-mannopyranoside was dissolved in water (APM needs first to be solubilized in a small volume (1 ml) of ethanol prior to being added into water) with 3 ppm Mn as EDTA, 6 ppm Ca as EDTA, 10% isopropyl alcohol and 1.5 g/L Pluronic L-62. A solution of the formulation was applied to radish foliage. When compared to an identical control formulation without the aminophenyl-α-D-mannopyranoside, the above formulation provided a 20% root increase. For aminophenyl-α-D-mannopyranoside, the proper dose for radish is between 1 to 100 μg per plant and preferably between 5 to 50 μg per plant. This is the equivalent to an application of 75 to 100 gallons per acre at a preferred volume of 100 gallons per acre of up to 2 gm/liter.

[1] = system: radish "Cherry Bell" Raphanus sativus L.; test: Greenhouse foliar treatment of radish, root dry weight; assay type: in vivo; conditions: for active concentration applied for growth response: foliar, radish
Method: Plant responses to formulations of an alkyl-α-D-mannopyranose and an electron donating-aryl-α-D-mannopyranose were consistent with preferred binding tendencies to displace glucose from storage. Plants were maintained in automated greenhouses controlled for temperature, light and circulation. Environmental conditions during the course of the studies averaged 13:11 hour L:D photoperiod, 25°:20° C. day:night and 20% to 80% relative humidity. Sunlight was supplemented with electrical illumination to achieve photosynthetically active radiation levels ranging from 350 to 600 μmol photons·m^−2·s^−1 at the level of the phylloplane. Solutions for treated and control plants were applied within an hour, otherwise subjecting all plants to identical conditions consistent with good laboratory practices. Solutions applied to controls included nutrients and surfactants identical to the treatment solution, but without the active compound. General supplementation of foliar formulations included the following: 10-100 mM ammonium salt; 1-6 ppm manganese, Mn-EDTA; and 5-10 ppm calcium, Ca-EDTA. For example, foliar solutions of 0.3 mM p-aminophenylmannopyranoside, hereafter referred to as APM, were supplemented with 23 mM ammonium sulfate, (NH4)2SO4, 3 ppm Mn and 6 ppm Ca; and Nutrient Control contained 23 mM (NH4)2SO4, 3 ppm Mn and 6 ppm Ca. The foliar concentrations of Mn and Ca were higher than those specified previously because of the low volumes of foliar applications relative to hydroponic root immersion volumes, and they were particularly effective in combination with foliar applications of compounds because they supported high rates of productivity in the treated plants without phytotoxicity. Compounds for experimentation included the following: methyl-α-D-mannopyranoside (MeM), APM, and methyl-α-D-glucopyranoside (MeG). All foliar solutions were formulated with 1 gm/liter surfactant blend consisting of 0.5 gram DowCorning Q5211 dispersed into 1.5 grams BASF Pluronic L62. As a matter of course, untreated controls that foliar nutrients and wetting agents were not introducing artifacts. The standard volume for foliar application of experimental treatments was 200 liters/hectare. Identical volumes of foliar spray per tray of plant cultures were applied mechanically in a single pass. Controls were placed in the same location and given identical irrigation and handling as the treated plants. To compare the effects of treatments under tightly controlled conditions, plants were cultured, harvested, cleaned and weighed as per previously described methods. Treated plants were statistically analyzed in comparisons against controls. Each survey population held sufficient replicate sample numbers to make meaningful statistical analyses utilizing SPSS® software. Significance was determined at the 95% confidence interval (CI) of the difference. Counts of population numbers are denoted as “n” values. For experiments, radish “Cherry Bell” Raphanus sativus L., a root crop was planted and treated. […] Therefore, least concentrations were selected for statistical experimentation; and 200 l/ha foliar 1 mM MeM or 0.3 mM APM in nutrient-supplemented formulations were applied to 5 cm tall sprouts; while, Nutrient Controls were given foliar applications of identical solutions without the α-D-glycopyranosides; and no foliar solutions were applied to untreated controls which were otherwise identically cultivated and irrigated. For our quantification experiments, when improvements of root productivity over those of nutrient controls were visibly discernible 12 d after treatment, all populations of controls and treatments were harvested, and individual dry weights of treatment and control populations were analyzed.

[2] = system: radish (Raphanus sativus L., cultivar "Cherry Bell"); test: Radish seed germination and seedling growth, nutrient omission media; assay type: in vivo
Method: Treatment of seeds and seedlings by aqueous solutions is exemplified by mannosides supplemented with soluble divalent cations in complete mannosides formulations. […] Benefits of such exemplary seed priming methods are as follows: Germination and early growth of radish (Raphanus sativus L., cultivar “Cherry Bell”) and Swiss Chard (Beta vulgaris subspecies cicla L., cultivar “Fordhook® Giant”) were tested for response to α-mannosides supplemented with Ca^2+ and/or Mn^2+. Rapid assays of radish seed germination and growth used hydroponic cultures with no solid medium; longer experiments with Swiss Chard used a 2-5 mm substratum of 700 μm diameter glass microbeads. Neutralization of glass microbeads may be undertaken with dilute mildly acidic solution titrated to pH 6; for example, with mineral acids such as hydrochloric acid, sulfuric acid, nitric acid, and the like; organic acids such as uronic, citric, malic, lactic, salicylic, ascorbic, succinic, oxaloacetic, ketoglutaric, fumaric acids, and amino acids, and the like; artificial biological buffering agents such as TRIS, BIS TRIS, MES, MOPS, HEPES, and the like; fertilizers; and most preferably, phosphates; and the most highly preferred compounds are combinations of compounds in a pH 6-buffer that provide major nutrients for plants, such as MAP with DKP or DAP with MKP; and the like. When test medium was added, the glass microbeads formed an even layer, drawing liquid to the surface by capillary action. Seeds were examined to exclude aberrantly large, small, or damaged seeds, and were placed on the surface of the substratum. For experiments using post-germination seedlings, seeds were germinated in deionized water prior to exposure to nutrient media. A seed with an emerged radicle >1 mm was recorded as germinated, and germinated seeds were counted daily, until 95% germination. There was no visible evidence of either desiccation or waterlogging effects. Glass microbeads were removed by immersion and agitation in water, or manually with fine forceps. Harvested plants were oven-dried to determine dry weight. Treatment and control solutions were prepared by dissolving nutrients in deionized ultrapure water.
Growth media were based on omission or inclusion of glycosides and targeted divalent cations. Triose is the abbreviation for α-1,3-α-1,6 mannotriose) and MEM is methyl-α-D-mannoside. Terminology used herein indicates the omission or inclusion of nutrients: 000=control medium with no glycoside, Ca^2+ or Mn^2+; MeMOO=medium with MeM, but no Ca^2+ or Mn^2+; MeMCaO=medium with MeM and Ca^2+, but no Mn^2+, OCaMn=medium with no MeM, but with Ca^2++Mn^2+; and so on. Similar terminology is used for media containing triose. Results cited are means±SE. […]

What does the source list for `OC[C@H]1O[C@H](O[C@H]2[C@H](O)[C@@H](O)C(O)O[C@@H]2CO)[C@H](O)[C@@H](O)[C@@H]1O` (mixture of isomers) [maltose]?
potency relative to alpha-MeG (plants): lower potency; potency relative to beta-MeG (plants): 9 ×

`Nc1ccc(O[C@H]2O[C@H](CO)[C@@H](O)[C@H](O)[C@@H]2O)cc1` [APM, 4-amino-phenyl-α-D-mannopyranoside] was tested. Which “root and shoot development / productivity compared to Control” value (Crocus) did it give?
Its value is “clearly advanced productivity; also recorded: advanced root and shoot development”.

And the “mean dry weight of whole plants” value (Radish seedlings; 5 μM, 48 h)?
Its value is 9.4 mg.

What about the “difference of mean dry weight from the Nutrient Control” value (Radish seedlings; 5 μM, 48 h, p=0.06) of the same compound?
Its value is “not significantly different; also recorded: no significant difference”.

And the “mean dry weight of whole plants” value (Radish seedlings; 10 μM, 48 h)?
Its value is 10.3 mg.

And the “enhancement of mean dry weight over Nutrient Control” value (Radish seedlings; 100 μM, 48 h)?
The value was 10%.

What about the “mean dry weight of whole plants” value (Radish seedlings; 100 μM, 48 h) of the same compound?
The value was 11 mg.

And the “growth response compared to Nutrient Control (visual)” value (Radish seedlings; 48 h)?
The value was “advanced growth”.

What about the “root increase compared to identical control formulation” value (radish) of the same compound?
The value was 20%.

And the “root mean dry weight over the Nutrient Control” value ([1]; foliar 0.3 mM with nutrients)?
The value was “significant (n=72; p=0.003) increase”.

And the “root mean dry weight increase over controls” value ([1]; foliar 0.3 mM, 200 l/ha, harvest 12 d after treatment, n=72, p=0.003)?
Its value is “approximately 20%”.

And the “active concentration applied for growth response” value [1]?
The value was 0.3 mM.

What does the source list for `CC(=O)OC[C@H]1OC(O)[C@@H](OC(C)=O)[C@@H](OC(C)=O)[C@@H]1OC(C)=O` (stereo partly drawn) [TAM, 2,3,4,6-tetra-O-acetyl-D-mannopyranose (αβ)]?
mean dry weight of whole plants (Radish seedlings; 100 μM, 48 h): 8.1 mg; difference of mean dry weight from the Nutrient Control (Radish seedlings; 100 μM, 48 h, p=0.11): no significant difference; mean dry weight of whole plants (Radish seedlings; 1 mM, 48 h): 8.8 mg; growth response compared to Nutrient Control (visual) (Radish seedlings; 48 h): advanced growth responses

How did the “mean dry weight of whole plants” value (Radish seedlings; 100 μM, 48 h) turn out when `CC(=O)OC[C@H]1O[C@H](OC(C)=O)[C@@H](OC(C)=O)[C@@H](OC(C)=O)[C@@H]1OC(C)=O` [MP, pentaacetyl-α-D-mannopyranose] was run?
The value was 8.2 mg.

And the “growth response compared to Nutrient Control (visual)” value (Radish seedlings; 48 h)?
The value was “advanced growth responses”.

What about the “potency compared with the mixed anomers” value (Radish seedlings; effective doses 100 μM MP and 1 mM TAM) of the same compound?
The value was “higher potency”.

For `OC[C@H]1O[C@H](OC[C@H]2OC(O)[C@@H](O)[C@@H](O[C@H]3O[C@H](CO)[C@@H](O)[C@H](O)[C@@H]3O)[C@@H]2O)[C@@H](O)[C@@H](O)[C@@H]1O` (stereo partly drawn) [triose, α-1,3-α-1,6 mannotriose], which “seedling growth compared with no triose” value ([2]; 1 μM triose, lacking Ca2+) is on record?
Its value is “comparable to seedlings grown with no triose”.

What about the “mean dry weight compared with medium with no triose” value ([2]; 0.3, 1 or 10 μM triose with Mn2+ and Ca2+, 1 day treatment, second day) of the same compound?
The value was “significantly greater”.

And the “concentration at which no growth enhancement was observed” value ([2]; radish seedlings, complete media)?
Its value is “less than 0.3 μM”.

With `CO[C@H]1O[C@H](CO)[C@@H](O)[C@H](O)[C@H]1O` [MeG, methyl-α-D-glucopyranoside, reference compound] as the compound, how does the “productivity over nutrient and untreated controls” value ([1]; foliar 129 mM with Ca, Mn and ammoniacal nitrogen) read?
Its value is “consistently increased productivities”.

What about the “active concentration applied for growth response” value [1] of the same compound?
The value was 129 mM.
